{"source": "patent US20090197269A1", "about": "“Translocation and mutant CSF1R Kinase in human leukemia” (CELL SIGNALING TECHNOLOGY, INC., priority 2006, published 2009)", "key": {"STAT5 and ERK": {"test_system": "STAT5 and ERK", "test": "Western blot of downstream target phosphorylation in MKPL-1 cells", "format": "cell-based, human", "settings": "Imatinib"}, "CMK": {"test_system": "CMK", "test": "MTT cell proliferation assay, control cells", "format": "cell-based, human", "settings": "control cells (CMK negative control), 48 hour MTT"}}}
{"molecule": "Cc1ccc(NC(=O)c2ccc(CN3CCN(C)CC3)cc2)cc1Nc1nccc(-c2cccnc2)n1", "note": "[Imatinib]", "values": [{"measurement": "phosphorylation of downstream target STAT5 and ERK", "setting": "STAT5 and ERK", "result": "inhibited as well"}, {"measurement": "inhibition of cell growth", "setting": "CMK", "result": "the control cells are not"}]}
